Measurements: PMC8230565, “Bisavenathramide Analogues as Nrf2 Inductors and Neuroprotectors in In Vitro Models of Oxidative Stress and Hyperphosphorylation” (Antioxidants, 2021)
“Also recorded” adds a separate entry of the source.

Tests used:
Assay type in all cases: cell-based
NQO1 = test: Western blot of Nrf2-dependent protein expression in AREc32 cells: NQO1; conditions: 30 μM, 24 h
Method: (§1) AREc32 cells were collected from plates after 24 h of treatment with the selected compound at 30 µM. Then, they were lysed in ice-cold lysis buffer (1% Nonidet P-40, 10% glycerol, 137 mM NaCl, 20 mM Tris HCl pH 7.5, 1 μg/mL leupeptin, 1 mM phenylmethylsulfonyl fluoride, 20 mM NaF, 1 mM sodium pyrophosphate, and 1 mM Na3VO4). After this treatment, proteins (30 μg) were resolved by gel electrophoresis on sodium dodecyl sulfate–polyacrylamide (12%) and transferred to Immobilon-P membranes (MilliporeSigma, Burlington, MA, USA). The membranes were incubated with anti-GCLc (1:1000, Ab41463 (Abcam, Cambridge, MA, USA), anti−HMOX1 (1:1000, ab68477, Abcam), anti-NQO1 (1:1000, 11451-1-AP, Proteintech, Manchester, UK), or anti-β-Actin (1:100,000, A3854, Merck, Madrid, Spain). Peroxidase-conjugated secondary antibodies (1:10,000 and anti-rabbit: SC-2357, Santa Cruz Biotechnology, Dallas, TX, USA) were employed to detect the proteins by enhanced chemoluminescence. Band intensities corresponding to immunoblot detection of protein samples were quantitated with Fiji software.
(§2) Figure 4 Compound 3g effectively induces Nrf2 translocation and overexpression of Nrf2-ARE dependent genes in AREc32 cells. […] (B) Nrf2 nuclear localization analysis, measured as integrated intensity localized at the nucleus. HMOX1 (C) and NQO1 (D) expression in AREc32, measured by Western blot analysis. […]

HMOX1 = test: Western blot of Nrf2-dependent protein expression in AREc32 cells: HMOX1; conditions: 30 μM, 24 h
Method: as §1, §2

SH-SY5Y cells [1] = test: Superoxide production (DHE) in SH-SY5Y cells under R/O; conditions: 1 and 10 µM
Method: To evaluate superoxide production, we used the fluorescent dye dihydroethidium (DHE). SH-SY5Y cells were seeded in 96-well clear-bottom black plates (6 × 10^4 cells/well). After 24 h, cells were treated with compound 3i at the desired concentrations for 24 h. Thereafter, treatments were eliminated and cells were loaded with DHE (20 μM) for 45 min. […] Fluorescence was evaluated in a Nikon T1000 fluorescence microscope at 490/630 excitation/emission wavelengths, respectively. Images were quantitated using Fiji software, and data are expressed as the increase after 6 h exposure to ROS generator, normalized to basal conditions as 100% increase.
To further evaluate its mechanism of action, and considering the importance of exacerbated oxidative stress in neurodegenerative diseases, we evaluated its capacity to reduce free radical species production using the above-mentioned R/O toxic combination to generate ROS and measure the influence of 3i in the total ROS production by using the H2DCFDA dye, and also the specific superoxide production by using the selective dye dihydroetidium (DHE). […] This reduction might be related to a combination of direct scavenger effect and an increased expression of Nrf2-dependent antioxidant genes, such as HO-1.

[2] = system: AT8 (Ser202, Thr205 phospho-Tau); test: Phospho-tau (AT8) immunofluorescence in SH-SY5Y cells treated with okadaic acid; conditions: 10 µM, OA 20 nM, 8 h
Method: (§3) AREc32 or SH-SY5Y cells were seeded in 24 multiwell plates (40,000 or 100,000 cells per well, respectively) on poly-D-Lysine coated crystal slides. AREc32 cells were incubated for 1 h with the compounds under assay, and were then fixed by treatment with a 4% solution of paraformaldehyde in PBS for 15 min, followed by three washings with PBS in 5 min intervals. SH-SY5Y cells were treated with compounds during 24 h, and then co-incubated with medium (basal), okadaic acid (OA, 20 nM), or OA plus compound 3i (10 μM). Thereafter, cells were permeabilized by treatment with 0.5% Triton X-100 for 5 min, followed by three washings with PBS, and were incubated overnight with primary antibody anti-Nrf2 (ARE, 1:50, A-10, sc-365949, Santa Cruz Biotechnology, Dallas, TX, USA), anti-pTau AT8 (1:400, MN1020, Thermofisher, Madrid, Spain), and anti-HO-1 (1:400, Ab13243, Abcam, Madrid, Spain). After three washes with PBS, the cells were incubated with secondary antibodies (1:800, 1 h). In order to visualize the nuclei, the cells were counterstained during the second wash with 5 μg·mL^−1 of Hoechst 33342 (Invitrogen, Madrid, Spain). […]
(§4) Finally, we evaluated the capacity of compound 3i to reduce tau hyperphosphorylation in the SH-SY5Y cellular line induced by okadaic acid (OA). […]

SH-SY5Y cells [3] = test: Neuroprotection against rotenone/oligomycin A in SH-SY5Y cells (MTT); conditions: increasing concentrations; R/O 30/10 µM
HO-1 = HO-1 immunofluorescence in SH-SY5Y cells treated with okadaic acid; conditions: 10 µM, OA 20 nM, 8 h
Method: as §3, §4

SH-SY5Y cells [4] = test: Total ROS production (H2DCFDA) in SH-SY5Y cells under R/O; conditions: 0.1, 1 and 10 µM; R/O 6 h
Method: ROS production was evaluated using the fluorescent dye H2DCFDA [20]. Briefly, after deacetylation inside the cell, the H2DCF derivative is able to react with oxygen-free radicals and is transformed into dichlorofluorescein, increasing its fluorescence intensity. SH-SH5Y cells were seeded in 96-well clear-bottom black plates 6 × 10^4 cells/well. After 24 h, cells were treated with compound 3i at the desired concentrations for 24 h. Treatments were then eliminated and the cells were loaded with H2DCFDA (10 μM) for 45 min. […] Fluorescence was evaluated in a fluorescence microplate reader (Fluostar optima; BMG Labtech, Ortenberg, Baden-Württemberg, Germany) at 485/520 excitation/emission wavelengths, respectively. […]
To further evaluate its mechanism of action, and considering the importance of exacerbated oxidative stress in neurodegenerative diseases, we evaluated its capacity to reduce free radical species production using the above-mentioned R/O toxic combination to generate ROS and measure the influence of 3i in the total ROS production by using the H2DCFDA dye, and also the specific superoxide production by using the selective dye dihydroetidium (DHE). […]

| SMILES | NQO1 protein levels (NQO1) | HMOX1 protein levels (HMOX1) | superoxide production (DHE) (SH-SY5Y cells [1]) | phospho-tau levels [2] | neuroprotective effect against rotenone/oligomycin A by concentration (SH-SY5Y cells [3]) | increase of HO-1 levels compared to basal levels (HO-1) | total ROS production (H2DCFDA) (SH-SY5Y cells [4]) |
| --- | --- | --- | --- | --- | --- | --- | --- |
| COC(=O)C1=C(C)N(CCc2ccccc2)C(=O)/C1=C\c1cc(OC)c(OC)c(OC)c1 [Compound 3g, Methyl (Z)-2-Methyl-5-oxo-1-phenethyl-4-(3,4,5-trimethoxybenzylidene)-4,5-dihydro-1H-pyrrole-3-carboxylate] | significantly increased | significantly increased | – | – | – | – | – |
| COC(=O)C1=C(C)N(CCc2ccccc2)C(=O)/C1=C\c1ccc(O)c(O)c1 [Compound 3i, Methyl (Z)-4-(3,4-Dihydroxybenzylidene)-2-methyl-5-oxo-1-phenethyl-4,5-dihydro-1H-pyrrole-3-carboxylate] | – | – | reduce superoxide production at both concentrations | significantly reduced phopho-tau levels to basal levels | statistically significant neuroprotective effect at 0.1 and 1 µM; also recorded: this activity was lost at 10 µM | 46% | reduce ROS production almost to basal levels at all concentrations tested |
